Assay results as given in publication PMC6225478, “Natural Scaffolds with Multi-Target Activity for the Potential Treatment of Alzheimer’s Disease” (Molecules : A Journal of Synthetic Chemistry and Natural …, 2018).
Values joined by “and” are separate entries in the source; they are usually repeats but may differ in a detail not shown here. Equal values may be shown once. Read-outs that look alike come from different tables or passages of the source.

Experiments:
Aβ1–40 = molecular target: T1, Aβ1–40 (Homo sapiens, UniProt P05067); test: Inhibition of Aβ1–40 aggregation (ThT fluorescence); type: biochemical; settings: Aβ1–40 30 μM; for IC50: 2 h at 25 °C, ThT fluorescence; for iAβ %I (100μM): percentage of inhibition at 100 μM inhibitor
T1 construct: diluting Aβ1–40 (EZBiolab, Carmel, IN, USA); purchased EZBiolab, Carmel, IN, USA
Protocol: The spectrofluorimetric assays measured ThT fluorescence in the presence of Aβ and were done as previously described [39]. Co-incubation samples were prepared in 96-well black, non-binding microplates (Greiner Bio-One GmbH, Frickenhausen, Germany) by diluting Aβ1–40 (EZBiolab, Carmel, IN, USA) alone or in the presence of the inhibitor to a final concentration of 30 μM and 100 μM, respectively, in PBS (pH 7.4) containing 10% DMSO and 2% 1,1,1,3,3,3-hexafluoro-2-propanol (HFIP). After 2 h of incubation at 25 °C, 25 μM ThT solution in phosphate buffer (pH 6.0) was added and fluorescence was read in a multi-plate reader Infinite M1000 Pro (Tecan, Cernusco S.N., Italy). […] Assays were run in triplicate. Values are expressed as mean ± SEM.

BChE from equine serum = molecular target: T2, BChE from equine serum (Equus caballus, UniProt P81908); test: BChE inhibition, modified Ellman's spectrophotometric assay; type: biochemical; settings: for esBChEi %I (10μM): percentage of inhibition at 10 μM inhibitor, equine serum BChE
T2 construct: purchased Sigma-Aldrich, Milan, Italy; host or cells: equine serum
Protocol: (§1) A modified protocol of Ellman’s spectrophotometric assay [54] adapted to a 96-well plate procedure was followed as previously described [39]. Incubation samples of AChE from electric eel or BChE from equine serum (eeAChE, 463 U/mg, and esBChE, 13 U/mg, Sigma-Aldrich, Milan, Italy) were set in phosphate buffer (pH 8.0) containing 0.5 mM 5,5′-dithiobis(2-nitrobenzoic acid) (DTNB; Sigma-Aldrich, Milan, Italy) as the chromophoric reagent alone or in the presence of the inhibitor (10 μM). Incubations were carried out in clear flat-bottomed, 96-well plates (Greiner Bio-One GmbH, Frickenhausen, Germany) in duplicate. […] After incubation for 20 min at 25 °C, 0.5 mM acetyl- or butyrylthiocholine iodide (Sigma-Aldrich, Milan, Italy) were added as the substrates and AChE-catalyzed hydrolysis was followed by measuring the increase of absorbance at 412 nm for 5 min at 25 °C in a Tecan Infinite M1000 Pro multiplate reader (Tecan, Cernusco S.N., Italy). Inhibition values and IC50s were calculated with a GraphPad Prism as the mean of three independent experiments and are expressed as mean ± SEM.

AChE from electric eel = molecular target: T3, AChE from electric eel (Electrophorus electricus, UniProt O42275); test: biochemical
T3 construct: purchased Sigma-Aldrich, Milan, Italy
Protocol: as §1

[1] = Antioxidant activity (DPPH radical scavenging assay); settings: DPPH 100 µM in methanol, 30 min
Protocol: The DPPH assay is routinely practiced for the assessment of the free radical scavenging potential of an antioxidant molecule.
The DPPH radical scavenging assay was performed in 96-well microplates according to the method reported by Blois with some modifications.
A freshly prepared solution of DPPH in methanol (100 µM final concentration) was added to test compounds methanolic solution. The mixtures were shaken vigorously and left to stand in the dark for 30 min at room temperature. Then absorbance was read at 520 nm using a spectrophotometric plate reader (Victor 3 Perkin-Elmer).
The antioxidant activity was determined as the RSA% (radical scavenging activity) and calculated using the following equation: RSA% = 100 × [(Ao − Ai)/Ao] where Ao and Ai are the DPPH absorbance in the absence or in the presence of antioxidants, respectively. Different sample concentrations were used in order to obtain anti-radical curves for calculating the EC50 values. Anti-radical curves were plotted referring to log concentration on the x-axis and their RSA% on the y-axis. The EC50 values and statistical analyses were processed using the GraphPad Prism 5 software (San Diego, CA, USA).
Values of all parameters are expressed as mean ± SEM of at least three independent measurements in triplicate.

BChE = test system: BChE; parameters: method as in PMID 28286309; settings: at 100 μg/mL; cited from earlier work
AChE [2] = test system: AChE; parameters: method as in earlier work; settings: ref 40 (Ali et al.); read-out: AChEi (means ± SEMs of triplicate experiments); cited from earlier work
Aβ = test system: Aβ; parameters: method as in PMID 21261647; settings: read-out: Inhibitory activity of Aβ aggregation IC50; cited from earlier work
AChE [3] = test system: AChE; parameters: method as in PMID 20692939; settings: cited from earlier work
AChE [4] = test system: AChE; parameters: method as in PMID 28286309; settings: at 100 μg/mL; cited from earlier work
[5] = acetylcholinesterase from electric eel, mean ± SEM, read-out: eeAChEi IC50 (μM ± SEM)
[6] = butyrylcholinesterase from equine serum, mean ± SEM, i.a. = not active

T1 sequence (P05067 672-711): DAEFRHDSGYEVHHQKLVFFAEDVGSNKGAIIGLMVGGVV
T3 sequence (O42275 24-633): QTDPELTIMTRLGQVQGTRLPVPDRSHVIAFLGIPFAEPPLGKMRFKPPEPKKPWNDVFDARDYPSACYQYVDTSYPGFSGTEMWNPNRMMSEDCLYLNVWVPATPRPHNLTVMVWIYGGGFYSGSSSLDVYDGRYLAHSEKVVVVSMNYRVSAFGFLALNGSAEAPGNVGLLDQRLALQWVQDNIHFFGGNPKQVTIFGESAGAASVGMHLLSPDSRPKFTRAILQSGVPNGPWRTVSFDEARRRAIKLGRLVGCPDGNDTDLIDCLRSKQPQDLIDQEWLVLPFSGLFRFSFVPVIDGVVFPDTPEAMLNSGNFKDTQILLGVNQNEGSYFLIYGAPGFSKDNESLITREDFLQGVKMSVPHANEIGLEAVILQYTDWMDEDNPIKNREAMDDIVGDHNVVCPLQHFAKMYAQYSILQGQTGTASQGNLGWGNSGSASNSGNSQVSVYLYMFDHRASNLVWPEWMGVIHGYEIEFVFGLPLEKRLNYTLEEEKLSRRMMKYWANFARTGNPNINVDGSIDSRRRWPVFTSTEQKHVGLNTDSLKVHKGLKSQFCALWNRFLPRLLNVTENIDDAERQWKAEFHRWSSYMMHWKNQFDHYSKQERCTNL
T2 sequence (P81908 whole entry): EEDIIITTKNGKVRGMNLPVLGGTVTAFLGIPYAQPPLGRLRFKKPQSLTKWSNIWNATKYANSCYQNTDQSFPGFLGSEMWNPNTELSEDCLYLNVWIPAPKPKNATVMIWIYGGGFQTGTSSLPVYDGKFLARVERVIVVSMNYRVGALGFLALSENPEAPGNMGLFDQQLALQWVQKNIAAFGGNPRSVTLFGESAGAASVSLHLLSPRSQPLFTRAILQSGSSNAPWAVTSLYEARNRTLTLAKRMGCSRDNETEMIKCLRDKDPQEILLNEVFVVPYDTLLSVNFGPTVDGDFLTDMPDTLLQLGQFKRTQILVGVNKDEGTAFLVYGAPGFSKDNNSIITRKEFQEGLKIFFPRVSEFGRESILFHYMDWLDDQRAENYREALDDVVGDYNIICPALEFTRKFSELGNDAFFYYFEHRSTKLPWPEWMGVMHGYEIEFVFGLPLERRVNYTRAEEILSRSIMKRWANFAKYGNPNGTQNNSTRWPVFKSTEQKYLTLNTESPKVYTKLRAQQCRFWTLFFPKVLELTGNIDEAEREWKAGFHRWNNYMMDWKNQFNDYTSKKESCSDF

Q: Which IC50 (Aβ1–40; read-out: iAβ IC50 (μM ± SEM)) does the source give for `O=c1c(O)c(-c2ccc(O)c(O)c2)oc2cc(O)cc(O)c12` [Quercetin, reference compound] here?
A: Its IC50 is 0.82 ± 0.07 µM.

Q: What does the source list for `COc1cc(O)c2c(c1)C[C@@H](C)OC2=O` [Compound 4, 6-Methoxymellein]?
A: esBChEi %I (10μM) (BChE from equine serum): %I (10μM): 10 ± 3%; IC50 (Aβ1–40; read-out: iAβ IC50 (μM ± SEM)): 98 ± 3 µM; IC50 (AChE from electric eel; [5]): 11.4 ± 0.8 µM; Antioxidant Activity EC50 (μmol/µmol of DPPH ± SEM) [1]: > 100 μmol/µmol of DPPH

Q: With `COc1ccc2c3c1O[C@H]1C[C@@H](O)C=C[C@@]31CCN(C)C2` [Galantamine] as the molecule, how does the “Percentage of inhibition against BChE” value (BChE) read?
A: Its value is 81.93 ± 2.52%.

Q: For `O=Cc1cc2ccc(=O)oc2cc1O` [6-formyl-umbelliferone], which IC50 (AChE [2]) is on record?
A: The IC50 was 16.7 ± 1.62 µM.

Q: With `O=C(O)c1cc(O)c(O)c(O)c1` [Gallic acid, reference compound] as the molecule, how does the “Antioxidant Activity EC50 (μmol/µmol of DPPH ± SEM)” value [1] read?
A: Its value is 0.054 ± 0.004 μmol/µmol of DPPH.

Q: With `Oc1ccc(/C=C/c2cc(O)cc3c2[C@H](c2cc(O)cc(O)c2)[C@@H](c2ccc(O)c(O)c2)O3)cc1` [scirpusin A] as the molecule, how does the IC50 (Aβ) read?
A: The IC50 was 0.7 ± 0.3 µM.

Q: What does the source list for `Oc1c(I)cc(Cl)c2cccnc12` [Clioquinol, reference compound]?
A: esBChEi %I (10μM) (BChE from equine serum): %I (10μM): 10 ± 1%; IC50 (Aβ1–40; read-out: iAβ IC50 (μM ± SEM)): 7.6 ± 0.8 µM; IC50 (AChE from electric eel; [5]): 8.12 ± 1 µM; Antioxidant Activity EC50 (μmol/µmol of DPPH ± SEM) [1]: 0.74 ± 0.04 μmol/µmol of DPPH

Q: For `COC(=O)/C=C/c1ncn(C)c1CC=C(C)C` [Compound 6, Fungerin], which IC50 (BChE from equine serum; butyrylcholinesterase from equine serum, mean ± SEM, i.a. = not active, read-out: esBChEi IC50 (μM ± SEM)) is on record?
A: Its IC50 is 1.75 ± 0.59 µM.

Q: What about the “Potency on BChE compared to that on AChE” value (BChE from equine serum; esBChE vs eeAChE IC50) of the same molecule?
A: Its value is “about 50 times”.

Q: And the “iAβ %I (100μM)” value (Aβ1–40)?
A: The value was “%I (100μM): 33 ± 9”.

Q: And the IC50 (AChE from electric eel; [5])?
A: Its IC50 is 86 ± 15 µM.

Q: What about the “Antioxidant Activity EC50 (μmol/µmol of DPPH ± SEM)” value [1] of the same molecule?
A: Its value is >100 μmol/µmol of DPPH.

Q: And the “Activity as an AChE inhibitor” value (AChE [3])?
A: Its value is “medium-high micromolar range”.

Q: With `C/C=C/c1cc2c(c(=O)o1)[C@@H](O)[C@@H](O)[C@H](C)O2` [Compound 2, 2-epi-Radicinol] as the molecule, how does the “esBChEi IC50 (μM ± SEM)” value (BChE from equine serum; [6]) read?
A: The value was “i.a”.

Q: And the IC50 (Aβ1–40; read-out: iAβ IC50 (μM ± SEM))?
A: The IC50 was 74 ± 1 µM.

Q: What about the IC50 (AChE from electric eel; [5]) of the same molecule?
A: Its IC50 is 6.86 ± 0.67 µM.

Q: What about the “Antioxidant Activity EC50 (μmol/µmol of DPPH ± SEM)” value [1] of the same molecule?
A: Its value is > 100 μmol/µmol of DPPH.

Q: Which IC50 (Aβ) does the source give for ε-viniferin glucoside here?
A: Its IC50 is 0.2 ± 0.3 µM.

Q: For `O=Cc1c(O)ccc2ccc(=O)oc12` [8-formyl-umbelliferon], which IC50 (AChE [2]) is on record?
A: The IC50 was 19.1 ± 0.57 µM.

Q: Which “Percentage of inhibition against AChE” value (AChE [4]) does the source give for pteryxin here?
A: The value was 9.30 ± 1.86%.

Q: And the “Percentage of inhibition against BChE” value (BChE)?
A: Its value is 91.62 ± 1.53%.

Q: With `C/C=C/c1cc2c(c(=O)o1)C(=O)[C@@H](O)[C@H](C)O2` [Compound 5, Radicinin] as the molecule, how does the “esBChEi %I (10μM)” value (BChE from equine serum) read?
A: The value was “%I (10μM): 6 ± 1%”.

Q: And the “iAβ %I (100μM)” value (Aβ1–40)?
A: The value was “%I (100μM): 44 ± 3”.

Q: And the IC50 (AChE from electric eel; [5])?
A: Its IC50 is 8.96 ± 0.97 µM.

Q: And the “Antioxidant Activity EC50 (μmol/µmol of DPPH ± SEM)” value [1]?
A: Its value is >100 μmol/µmol of DPPH.

Q: For `COc1c(C)c2c(c(O)c1C/C=C(\C)CCC(=O)O)C(=O)OC2` [Compound 3, Mycophenolic acid], which “esBChEi IC50 (μM ± SEM)” value (BChE from equine serum; [6]) is on record?
A: The value was “i.a”.

Q: And the “iAβ %I (100μM)” value (Aβ1–40)?
A: The value was “%I (100μM): 38 ± 3”.

Q: And the IC50 (AChE from electric eel; [5])?
A: The IC50 was 7.84 ± 0.72 µM.

Q: And the “Antioxidant Activity EC50 (μmol/µmol of DPPH ± SEM)” value [1]?
A: The value was 14.7 μmol/µmol of DPPH and 14.7 ± 3.4 μmol/µmol of DPPH.

Q: Which IC50 (Aβ1–40; iAβ IC50 (μM ± SEM)) does the source give for `CC[C@H](C)[C@@H]1NC(=O)C(C(C)=O)=C1O` [Compound 1, Tenuazonic acid] here?
A: The IC50 was ~100 µM.

Q: And the “iAβ %I (100μM)” value (Aβ1–40)?
A: Its value is “%I (100μM): 50 ± 8”.

Q: And the IC50 (AChE from electric eel)?
A: Its IC50 is 8.13 ± 0.08 µM.

Q: What about the “Antioxidant Activity EC50 (μmol/µmol of DPPH ± SEM)” value [1] of the same molecule?
A: Its value is 2.6 μmol/µmol of DPPH and 2.6 ± 0.2 μmol/µmol of DPPH.
